Measurements as given in PubChem BioAssay (NCI).
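Step 1: Grow cells in 96-well plates. Step 2: Expose to compound for 48 hours at 5 concentrations. Step 3: Interpolate endpoints linearly; if unreached, use highest concentration. The concentration for full growth arrest is given as TGI.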

Assays:
Assay in all cases: NCI-60 cell line screen, 48 h
OVCAR-4 ovarian = system: OVCAR-4 ovarian
SN12C renal = system: SN12C renal
DU-145 prostate = system: DU-145 prostate
SK-MEL-5 melanoma = system: SK-MEL-5 melanoma
HT29 colon = system: HT29 colon
HL-60(TB) leukemia = system: HL-60(TB) leukemia
HCT-116 colon = system: HCT-116 colon
OVCAR-5 ovarian = system: OVCAR-5 ovarian
HCT-15 colon = system: HCT-15 colon
MDA-MB-231 breast = system: MDA-MB-231 breast
SNB-19 CNS = system: SNB-19 CNS
T-47D breast = system: T-47D breast
MOLT-4 leukemia = system: MOLT-4 leukemia
K-562 leukemia = system: K-562 leukemia
SF-268 CNS = system: SF-268 CNS
U251 CNS = system: U251 CNS
SK-MEL-28 melanoma = system: SK-MEL-28 melanoma
KM12 colon = system: KM12 colon
SR leukemia = system: SR leukemia
UACC-62 melanoma = system: UACC-62 melanoma
RXF 393 renal = system: RXF 393 renal
NCI/ADR-RES ovarian = system: NCI/ADR-RES ovarian
A498 renal = system: A498 renal
HOP-62 NSCLC = system: HOP-62 NSCLC
RPMI-8226 leukemia = system: RPMI-8226 leukemia
SK-OV-3 ovarian = system: SK-OV-3 ovarian
SK-MEL-2 melanoma = system: SK-MEL-2 melanoma
SW-620 colon = system: SW-620 colon
MCF7 breast = system: MCF7 breast
OVCAR-8 ovarian = system: OVCAR-8 ovarian
PC-3 prostate = system: PC-3 prostate
786-0 renal = system: 786-0 renal
SF-295 CNS = system: SF-295 CNS
BT-549 breast = system: BT-549 breast
OVCAR-3 ovarian = system: OVCAR-3 ovarian
IGROV1 ovarian = system: IGROV1 ovarian
NCI-H226 lung = system: NCI-H226 lung
SF-539 CNS = system: SF-539 CNS
MDA-MB-435 = system: MDA-MB-435
HS 578T breast = system: HS 578T breast
NCI-H522 lung = system: NCI-H522 lung
NCI-H23 lung = system: NCI-H23 lung
ACHN renal = system: ACHN renal
UACC-257 melanoma = system: UACC-257 melanoma
TK-10 renal = system: TK-10 renal
NCI-H460 lung = system: NCI-H460 lung
M14 melanoma = system: M14 melanoma
MDA-N = system: MDA-N
CCRF-CEM leukemia = system: CCRF-CEM leukemia
LOX IMVI melanoma = system: LOX IMVI melanoma
COLO 205 colon = system: COLO 205 colon
UO-31 renal = system: UO-31 renal
A549 NSCLC = system: A549 NSCLC
HCC-2998 colon = system: HCC-2998 colon
HOP-92 NSCLC = system: HOP-92 NSCLC
EKVX NSCLC = system: EKVX NSCLC
CAKI-1 renal = system: CAKI-1 renal
MALME-3M melanoma = system: MALME-3M melanoma
SNB-75 CNS = system: SNB-75 CNS

SMILES: O=c1oc2ccccc2c(O)c1/C=N\c1nc(-c2ccc(O)c(O)c2)cs1
- TGI (OVCAR-4 ovarian): 27.5 µM
- TGI (SN12C renal): 15.6 µM
- TGI (DU-145 prostate): 17.9 µM
- TGI (SK-MEL-5 melanoma): 16.9 µM
- TGI (HT29 colon): 23.6 µM
- TGI (HL-60(TB) leukemia): 8.31 µM
- TGI (HCT-116 colon): 7.61 µM
- TGI (OVCAR-5 ovarian): 31.9 µM
- TGI (HCT-15 colon): 14.9 µM
- TGI (MDA-MB-231 breast): 18.7 µM
- TGI (SNB-19 CNS): 39.1 µM
- TGI (T-47D breast): 32 µM
- TGI (MOLT-4 leukemia): 3.34 µM
- TGI (K-562 leukemia): 10.4 µM
- TGI (SF-268 CNS): 22.1 µM
- TGI (U251 CNS): 17.3 µM
- TGI (SK-MEL-28 melanoma): 24.1 µM
- TGI (KM12 colon): 29.6 µM
- TGI (SR leukemia): 4.43 µM
- TGI (UACC-62 melanoma): 16.9 µM
- TGI (RXF 393 renal): 18.1 µM
- TGI (NCI/ADR-RES ovarian): > 72.2 µM
- TGI (A498 renal): > 46.7 µM
- TGI (HOP-62 NSCLC): 31.2 µM
- TGI (RPMI-8226 leukemia): 5.3 µM
- TGI (SK-OV-3 ovarian): 21.4 µM
- TGI (SK-MEL-2 melanoma): 7.04 µM
- TGI (SW-620 colon): 9.64 µM
- TGI (MCF7 breast): 17.4 µM
- TGI (OVCAR-8 ovarian): > 100 µM
- TGI (PC-3 prostate): 10.6 µM
- TGI (786-0 renal): 10.2 µM
- TGI (SF-295 CNS): > 100 µM
- TGI (BT-549 breast): 25.8 µM
- TGI (OVCAR-3 ovarian): 5.94 µM
- TGI (IGROV1 ovarian): 23.9 µM
- TGI (NCI-H226 lung): 42.2 µM
- TGI (SF-539 CNS): 12.5 µM
- TGI (MDA-MB-435): 20.4 µM
- TGI (HS 578T breast): > 80.8 µM
- TGI (NCI-H522 lung): 5.29 µM
- TGI (NCI-H23 lung): 9.87 µM
- TGI (ACHN renal): 9.77 µM
- TGI (UACC-257 melanoma): 10.3 µM
- TGI (TK-10 renal): 10.7 µM
- TGI (NCI-H460 lung): 14.3 µM
- TGI (M14 melanoma): 10.3 µM
- TGI (MDA-N): 18.8 µM
- TGI (CCRF-CEM leukemia): 4.58 µM
- TGI (LOX IMVI melanoma): 14.7 µM
- TGI (COLO 205 colon): 6.76 µM
- TGI (UO-31 renal): 9.24 µM
- TGI (A549 NSCLC): 26.6 µM
- TGI (HCC-2998 colon): 16.3 µM
- TGI (HOP-92 NSCLC): 28.5 µM
- TGI (EKVX NSCLC): 28.4 µM
- TGI (CAKI-1 renal): 16.5 µM
- TGI (MALME-3M melanoma): 9.17 µM
- TGI (SNB-75 CNS): 15.4 µM

SMILES: NC(=O)c1ccc(NCC2=CC(=O)C=CC2=O)cc1
- TGI (OVCAR-4 ovarian): 42.4 µM
- TGI (SN12C renal): 41.3 µM
- TGI (DU-145 prostate): > 100 µM
- TGI (SK-MEL-5 melanoma): 30.2 µM
- TGI (HT29 colon): 47.7 µM
- TGI (HL-60(TB) leukemia): 30.3 µM
- TGI (HCT-116 colon): 36.1 µM
- TGI (OVCAR-5 ovarian): 52.9 µM
- TGI (HCT-15 colon): 38.3 µM
- TGI (MDA-MB-231 breast): 37.5 µM
- TGI (SNB-19 CNS): > 100 µM
- TGI (T-47D breast): 68.9 µM
- TGI (MOLT-4 leukemia): 67.9 µM
- TGI (K-562 leukemia): 49.1 µM
- TGI (SF-268 CNS): 50.9 µM
- TGI (U251 CNS): 45.1 µM
- TGI (SK-MEL-28 melanoma): 36.9 µM
- TGI (KM12 colon): > 100 µM
- TGI (SR leukemia): 56.4 µM
- TGI (UACC-62 melanoma): 35.6 µM
- TGI (RXF 393 renal): 41 µM
- TGI (NCI/ADR-RES ovarian): 71.4 µM
- TGI (A498 renal): > 100 µM
- TGI (HOP-62 NSCLC): > 100 µM
- TGI (RPMI-8226 leukemia): 54.6 µM
- TGI (SK-OV-3 ovarian): > 100 µM
- TGI (SK-MEL-2 melanoma): 39.8 µM
- TGI (SW-620 colon): 44 µM
- TGI (MCF7 breast): 59.1 µM
- TGI (OVCAR-8 ovarian): 50.7 µM
- TGI (PC-3 prostate): 32.7 µM
- TGI (786-0 renal): 38.5 µM
- TGI (SF-295 CNS): > 100 µM
- TGI (BT-549 breast): 36.2 µM
- TGI (OVCAR-3 ovarian): 31 µM
- TGI (IGROV1 ovarian): 44.7 µM
- TGI (NCI-H226 lung): > 100 µM
- TGI (SF-539 CNS): 32.9 µM
- TGI (MDA-MB-435): 32.1 µM
- TGI (HS 578T breast): 75.2 µM
- TGI (NCI-H522 lung): 47.5 µM
- TGI (NCI-H23 lung): 51.7 µM
- TGI (ACHN renal): 31.6 µM
- TGI (UACC-257 melanoma): 43.1 µM
- TGI (TK-10 renal): 32.7 µM
- TGI (NCI-H460 lung): > 100 µM
- TGI (M14 melanoma): 31.3 µM
- TGI (MDA-N): 31.8 µM
- TGI (CCRF-CEM leukemia): 50.8 µM
- TGI (LOX IMVI melanoma): 32.5 µM
- TGI (COLO 205 colon): 36.2 µM
- TGI (UO-31 renal): 31.8 µM
- TGI (A549 NSCLC): > 100 µM
- TGI (HCC-2998 colon): > 100 µM
- TGI (HOP-92 NSCLC): 40.7 µM
- TGI (EKVX NSCLC): 34.3 µM
- TGI (CAKI-1 renal): 34.2 µM
- TGI (MALME-3M melanoma): 36.6 µM
- TGI (SNB-75 CNS): 36.2 µM

SMILES: S=C1Cc2cc3ccccc3nc2-c2ccccc2N1
- TGI (OVCAR-4 ovarian): > 40.4 µM
- TGI (SN12C renal): 32.6 µM
- TGI (DU-145 prostate): > 100 µM
- TGI (SK-MEL-5 melanoma): > 100 µM
- TGI (HT29 colon): > 100 µM
- TGI (HL-60(TB) leukemia): > 100 µM
- TGI (HCT-116 colon): 30.8 µM
- TGI (OVCAR-5 ovarian): > 91.9 µM
- TGI (HCT-15 colon): > 87.3 µM
- TGI (MDA-MB-231 breast): 27 µM
- TGI (SNB-19 CNS): > 47.4 µM
- TGI (T-47D breast): 28.7 µM
- TGI (MOLT-4 leukemia): > 100 µM
- TGI (K-562 leukemia): > 100 µM
- TGI (SF-268 CNS): 91.6 µM
- TGI (U251 CNS): 28.3 µM
- TGI (SK-MEL-28 melanoma): > 59.1 µM
- TGI (KM12 colon): > 100 µM
- TGI (SR leukemia): > 100 µM
- TGI (UACC-62 melanoma): 25.7 µM
- TGI (RXF 393 renal): 24.9 µM
- TGI (NCI/ADR-RES ovarian): 29 µM
- TGI (A498 renal): 18.6 µM
- TGI (HOP-62 NSCLC): 30.7 µM
- TGI (RPMI-8226 leukemia): > 100 µM
- TGI (SK-OV-3 ovarian): 15.4 µM
- TGI (SK-MEL-2 melanoma): 61.8 µM
- TGI (SW-620 colon): > 70.4 µM
- TGI (MCF7 breast): > 79 µM
- TGI (OVCAR-8 ovarian): 31.2 µM
- TGI (PC-3 prostate): 80.7 µM
- TGI (786-0 renal): 28.4 µM
- TGI (SF-295 CNS): 42.2 µM
- TGI (BT-549 breast): > 59.1 µM
- TGI (OVCAR-3 ovarian): 27.9 µM
- TGI (IGROV1 ovarian): 65.1 µM
- TGI (NCI-H226 lung): 46.9 µM
- TGI (SF-539 CNS): 29.4 µM
- TGI (MDA-MB-435): > 68.2 µM
- TGI (HS 578T breast): > 63.7 µM
- TGI (NCI-H522 lung): 43.1 µM
- TGI (NCI-H23 lung): 41.6 µM
- TGI (ACHN renal): 41.4 µM
- TGI (UACC-257 melanoma): 65.5 µM
- TGI (TK-10 renal): 44.6 µM
- TGI (NCI-H460 lung): > 51.2 µM
- TGI (M14 melanoma): > 64.2 µM
- TGI (MDA-N): > 100 µM
- TGI (CCRF-CEM leukemia): > 100 µM
- TGI (LOX IMVI melanoma): > 69.8 µM
- TGI (COLO 205 colon): > 100 µM
- TGI (UO-31 renal): 24.1 µM
- TGI (A549 NSCLC): > 64.8 µM
- TGI (HCC-2998 colon): 36 µM
- TGI (HOP-92 NSCLC): 20.2 µM
- TGI (EKVX NSCLC): 79.2 µM
- TGI (CAKI-1 renal): 54.5 µM
- TGI (MALME-3M melanoma): 47.6 µM
- TGI (SNB-75 CNS): 17.5 µM
